According to patent publication US9951104B2, “Peptides and methods of using same” (Serpin Pharma, LLC, priority 2012, dated 2018):
“Also recorded” adds a separate entry of the source.

Assays:
[1] = SP16 pharmacokinetic profile, plasma concentration by LC/MS/MS; format: in vivo, rat; conditions: SP16, IV (5 mg/kg), normal rats
Experimental: In performing the assay, three normal rats were injected intravenously with 5 mg/kg SP16 and the plasma concentration of SP16 established at 8 time points following the injection. […] The assay was executed by Apredica, Boston, Mass.

hERG = target: T1, hERG (Homo sapiens, UniProt Q12809); assay: hERG FastPatch assay; format: cell-based; conditions: test conc 0.008-25 μM
T1 construct: Apredica (contract study)
T1 sequence (Q12809 whole entry): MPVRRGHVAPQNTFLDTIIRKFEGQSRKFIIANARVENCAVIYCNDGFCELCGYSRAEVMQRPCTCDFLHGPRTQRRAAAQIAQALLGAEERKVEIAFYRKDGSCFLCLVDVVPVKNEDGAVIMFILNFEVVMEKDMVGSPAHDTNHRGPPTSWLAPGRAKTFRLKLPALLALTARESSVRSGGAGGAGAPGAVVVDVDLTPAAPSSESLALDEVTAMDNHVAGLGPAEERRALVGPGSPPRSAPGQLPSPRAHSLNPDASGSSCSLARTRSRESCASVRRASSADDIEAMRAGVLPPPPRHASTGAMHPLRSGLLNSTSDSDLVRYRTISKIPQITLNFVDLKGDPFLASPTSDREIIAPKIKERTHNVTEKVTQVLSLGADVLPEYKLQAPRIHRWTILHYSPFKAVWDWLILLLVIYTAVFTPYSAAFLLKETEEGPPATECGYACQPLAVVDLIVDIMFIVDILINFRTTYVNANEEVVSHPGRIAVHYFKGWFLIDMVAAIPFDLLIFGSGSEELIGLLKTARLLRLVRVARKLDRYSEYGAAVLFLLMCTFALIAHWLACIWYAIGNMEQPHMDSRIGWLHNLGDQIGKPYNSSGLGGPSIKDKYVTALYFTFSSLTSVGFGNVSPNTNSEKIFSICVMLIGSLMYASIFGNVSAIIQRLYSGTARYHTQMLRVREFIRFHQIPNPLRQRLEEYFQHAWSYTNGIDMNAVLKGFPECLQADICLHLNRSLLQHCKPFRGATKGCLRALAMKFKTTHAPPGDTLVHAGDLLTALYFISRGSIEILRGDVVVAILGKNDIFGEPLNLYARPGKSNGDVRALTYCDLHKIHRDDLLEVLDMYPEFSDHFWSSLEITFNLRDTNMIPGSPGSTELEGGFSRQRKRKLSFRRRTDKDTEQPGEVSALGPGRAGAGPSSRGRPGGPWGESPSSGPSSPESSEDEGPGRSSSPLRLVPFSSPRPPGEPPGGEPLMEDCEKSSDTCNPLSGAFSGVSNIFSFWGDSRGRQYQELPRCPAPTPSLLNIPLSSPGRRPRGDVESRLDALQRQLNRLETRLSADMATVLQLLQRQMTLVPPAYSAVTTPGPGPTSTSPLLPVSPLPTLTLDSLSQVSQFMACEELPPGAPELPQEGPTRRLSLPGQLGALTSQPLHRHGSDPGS

111 human receptors = assay: GenSEP Explorer panel, human receptor panning; conditions: whole GenSEP Explorer panel
From the text: In addition, we also performed a profile using human receptor panning. The GenSEP Explorer panel contains 111 in vitro assay targets carefully selected to assess drug/chemical biological activities. Assay categories include GPCRs, Voltage-Gated Ion Channels, Ligand-Gated Ion Channels, Neurotransmitter transporters, Nuclear Receptors and Steroids as well as a diverse set of biochemical targets including Phosphodiesterases, Kinases and other relevant enzymes.

TLR-2 = target: T2, TLR-2 (Mus musculus, UniProt Q9QUN7); assay: TLR-2 indicator cell line assay (HEK-Blue mTLR2, Invivogen), secreted alkaline phosphatase; format: cell-based; conditions: 20 μg/ml peptide for 24 hours (FIGS. 12, 13)
T2 construct: host or cells: HEK-Blue mTLR2 (engineered HEK reporter line secreting alkaline phosphatase)
T2 sequence (Q9QUN7 25-784): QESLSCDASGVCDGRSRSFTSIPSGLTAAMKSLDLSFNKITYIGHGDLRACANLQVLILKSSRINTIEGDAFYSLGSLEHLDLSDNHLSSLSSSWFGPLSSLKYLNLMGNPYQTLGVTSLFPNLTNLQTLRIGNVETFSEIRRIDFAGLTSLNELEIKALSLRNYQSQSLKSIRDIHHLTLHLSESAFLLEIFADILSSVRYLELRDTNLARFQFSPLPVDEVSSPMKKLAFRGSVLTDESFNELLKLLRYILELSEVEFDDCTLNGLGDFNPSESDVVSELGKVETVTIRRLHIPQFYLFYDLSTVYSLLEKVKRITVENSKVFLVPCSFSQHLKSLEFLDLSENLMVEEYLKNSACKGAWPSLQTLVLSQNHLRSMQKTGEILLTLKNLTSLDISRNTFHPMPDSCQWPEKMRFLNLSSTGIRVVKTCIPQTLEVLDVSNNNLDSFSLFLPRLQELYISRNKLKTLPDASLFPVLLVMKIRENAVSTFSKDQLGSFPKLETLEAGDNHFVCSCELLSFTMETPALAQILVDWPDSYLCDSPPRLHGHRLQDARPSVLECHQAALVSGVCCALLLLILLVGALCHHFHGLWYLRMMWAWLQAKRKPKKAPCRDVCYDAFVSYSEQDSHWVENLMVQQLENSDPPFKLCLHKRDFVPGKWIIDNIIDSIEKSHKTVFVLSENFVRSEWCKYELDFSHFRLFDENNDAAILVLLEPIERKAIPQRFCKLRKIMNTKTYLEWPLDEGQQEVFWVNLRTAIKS
Experimental: Graph summarizing representative data from assays with an engineered TLR-2 indicator cell line (HEK-Blue™ mTLR2, Invivogen). Cells were incubated with the indicated concentrations of peptide for 24 hours. Upon TLR2 activation, the cells secrete alkaline phosphatase which can be assayed. The assay was done in triplicate and averages with standard deviations are plotted.
Graph summarizing data from an experiment where an engineered TLR-2 indicator cell line (HEK-Blue™ mTLR2, Invivogen) was used to test the impact of substituting amino acid residues of the SP16 peptide with alanine (“alanine scan”). Cells were incubated with 20 μg/ml of the indicated peptides for 24 hours. Upon TLR2 activation, the cells secrete alkaline phosphatase which can be assayed. The assay was done in triplicate and averages are plotted. Peptide sequences are shown in the following figure. *p<0.05, compared with scrambled control (SP34).
We also performed a peptide optimization assay using an alanine scan with the TLR-2 assay. Data was obtained using an experiment with an engineered TLR-2 indicator cell line (HEK-BLUE™ mTLR2, Invivogen). Cells were incubated with the 20 μg/ml of the indicated peptides for 24 hours. Upon TLR2 activation, the cells secrete alkaline phosphatase which can be assayed. The assay was done in triplicate and averages are plotted. […]

LPS challenged mice = assay: Mouse LPS challenge model, serum TNF-alpha readout; format: in vivo; conditions: LPS challenged mice treated with alanine scanned SP16 peptides; compared to Dexamethasone (FIG. 10)
Experimental: In FIG. 10A the mice were treated with alanine scanned SP16 peptide. […] Based on this alanine screen, and without wishing to be bound by a theory, it appears that the C- and N-terminal amino acids contribute to the anti-inflammatory effect of the SP16 peptide. […] Groups of 3 animals were injected with 0.2 mg/kg peptide and subjected to LPS challenge. Serum TNF-alpha levels were determined by ELISA. Several peptides provided the same level of protection as 1 mg/kg Dexamethasone.
The ability of peptide drugs was tested to for their potential for the reduction of inflammatory cytokines following treatment with purified bacterial lipopolysaccharide (LPS)—a major component of bacterial cell wall of Gram negative bacteria. A model of inflammation was used wherein mice were injected with LPS, which induced a transient immune response and a surge of serum inflammatory cytokines. The immune response peaks after 90 minutes and subsides after 24 hours. The levels of key serum inflammatory markers were compared between mice treated and untreated with LPS 90 minutes after injection.
We designed 18 different peptides based on the hAAT sequence (Accession #AAB59371), and had these synthesized using conventional FMOC chemistry. To assess in vivo anti-inflammatory and therapeutic potential, the peptides were tested in a mouse lipopolysaccharide (LPS) challenge model with serum TNFα levels as readout. Using dexamethasone as reference, groups of 3 animals were IP injected with 0.2 mg/kg peptide 2 hours prior to an LPS challenge, and serum TNFα levels determined 30 min after the LPS challenge, by ELISA. The best performing peptide reduced serum TNFα levels equivalent to those achieved with 1 mg/kg dexamethasone. Next, shortened versions of this peptide were synthesized, tested in the mouse LPS challenge model, and a 17 amino acid peptide, SP16, emerged as a lead development candidate for further characterization. Next, SP16 was tested in a lethal endotoxemia model, which models endotoxemia following acute radiation exposure, where Gram negative bacteria leaking from the gastro-intestinal system can cause lethal endotoxemia.
Mice were injected with 0.5, 0.1, 0.02 and 0.004 mg of each peptide. Mice were also treated with dexamethasone as a positive control and vehicle as a negative control. Two hours later each mouse was injected with LPS. Samples were taken 90 minutes after LPS injection.
To evaluate the effect of different amino acids in the SP16 peptide for the immunomodulating effect, we created an alanine screen. […] The peptides wherein the substitution occurred within amino acids 4-14 of SP16, appeared to maintain and rather improve their capacity to reduce TNF-alpha levels compared to the control Dexamethasone. […]

| Molecule | TNF-alpha levels (LPS challenged mice) | also measured |
| --- | --- | --- |
| CC[C@H](C)[C@H](NC(=O)[C@H](CCSC)NC(=O)[C@H](CC(C)C)NC(=O)[C@H](Cc1ccccc1)NC(=O)[C@@H](NC(=O)[C@H](Cc1ccccc1)NC(=O)[C@@H]1CCCN1C(=O)[C@H](CCCCN)NC(=O)[C@H](CC(N)=O)NC(=O)[C@H](Cc1ccccc1)NC(=O)[C@H](CCCCN)NC(=O)[C@@H](N)C(C)C)C(C)C)C(=O)N[C@@H](CCC(=O)O)C(=O)N[C@@H](CCC(N)=O)C(=O)N[C@@H](CC(N)=O)C(=O)N[C@H](C(=O)N[C@@H](CCCCN)C(=O)O)[C@@H](C)O [SP16] | – | Last Time point [1]: 8 h; hERG inhibition (comment) (hERG): does not inhibit hERG; also recorded: No concentration-dependent inhibition; effect on 111 human receptors (111 human receptors): no effect |
| A A A N K P F V F L M I E Q N T K (AAANKPFVFLMIEQNTK; listed as Homo sapiens) [SP37, SP16 with residues 1-3 substituted with alanines] | – | impact on TLR-2 signaling (alanine scan) (TLR-2): no impact on TLR2 |
| V K F A A A F V F L M I E Q N T K (VKFAAAFVFLMIEQNTK; listed as Homo sapiens) [SP40] | reduce TNF-alpha levels more than Dexamethasone | – |
| V K F N K P A A A L M I E Q N T K (VKFNKPAAALMIEQNTK; listed as Homo sapiens) [SP43] | reduce TNF-alpha levels more than Dexamethasone | – |
| V K F N K P F V F A A A E Q N T K (VKFNKPFVFAAAEQNTK; listed as Homo sapiens) [SP46] | reduce TNF-alpha levels more than Dexamethasone | – |
| V K F N K P F V F L M I A A A T K (VKFNKPFVFLMIAAATK; listed as Homo sapiens) [SP49] | reduce TNF-alpha levels more than Dexamethasone | – |
